We go through 4 molecules from patent publication US20020173541A1, “Arthropod-controlling composition” (SUMITOMO CHEMICAL COMPANY, LIMITED, priority 2001, published 2002).

The test system of the assay is adult German cockroaches. In words: Knock-down test: oil solution sprayed on adult German cockroaches. The class given is in vivo, Blattella germanica (German cockroach). As for the experimental part:
According to Production example 7, each of the 0.5% oil solutions of The Pyrone Compound and Reference compound 1 was prepared. A square of paper (side: 20 cm) was covered on the iron net set on the bottom of the metallic chamber (46 cm×46 cm, 70 cm in height). A container (8.75 cm in diameter, 7.5 cm in height, having 16-mesh net at the bottom and spreading butter on the wall for preventing escape) was set on the paper. In the container, ten (5 males and 5 females) adult German cockroaches were released. By means of spray gun, 1.5 ml of the above oil solution was applied to the test insects at pressure of 4.1×10^4 Pa from the upper part of the chamber. The container was taken out of the chamber 30 seconds after spraying and the test insects were transferred to a plastic cup. Two minutes after spraying, the knocked-down cockroaches were counted. According to Production example 7, each of the 0.25% oil solutions of The Pyrone Compound and Reference compounds 2 and 3 was prepared. The same procedures as Test Example 1 gave the knock-down percentages and KT50 values (minutes for knocked-down 50% of cockroaches) in Table 2.

[1] abbreviates: 0.5% oil solution, 1.5 ml sprayed, knocked-down cockroaches counted two minutes after spraying.
Setting [2] is: 0.25% oil solution, same procedures as Test Example 1, average of 6 (The Pyrone Compound) or 3 (references) repetitions.

Consider `Cc1cc(O)c(C(=O)C(C)C)c(=O)o1` [Reference compound 1, 4-hydroxy-6-methyl-3-(2-methylpropanoyl)-2-pyrone], for which the “Knock-down percentage (%)” value under setting [1] was determined as 10%.

On to `CCC(CC)C(=O)c1c(O)cc(C)oc1=O` [Reference compound 2, 4-hydroxy-6-methyl-3-(2-ethylbutanoyl)-2-pyrone], for which, under setting [2], the “KT50 (minutes for knocked-down 50% of cockroaches)” value is “more than 10 minutes” and the “Knock-down percentage (%)” value turned out to be 0%.

`Cc1cc(O)c(C(=O)C2CC2)c(=O)o1` [Reference compound 3, 4-hydroxy-6-methyl-3-(cyclopropanecarbonyl) -2-pyrone]: under setting [2], the “KT50 (minutes for knocked-down 50% of cockroaches)” value is “more than 10 minutes” and the “Knock-down percentage (%)” value came to 6.7%.

In the case of `Cc1cc(O)c(C(=O)CC(C)C)c(=O)o1` [The Pyrone Compound, 4-hydroxy-6-methyl-3-(3-methylbutanoyl)-2-pyrone], under setting [2], the “KT50 (minutes for knocked-down 50% of cockroaches)” value came out at 0.85 min and the “Knock-down percentage (%)” value was 95%. For the same molecule, the “Knock-down percentage (%)” value under setting [1] was determined as 100%.
